Measurements as given in PMC10342533, “Novel Tetrazole Derivatives Targeting Tubulin Endowed with Antiproliferative Activity against Glioblastoma Cells” (International Journal of Molecular Sciences, 2023).
Several values for one entry are separate records, joined by “and”; a condition that tells them apart may be missing. Equal values may be shown once.

Experiments:
[1] = test system: T98G (temozolomide resistant glioblastoma); experiment: Cell growth inhibition, MTT assay, T98G; type: cell-based; conditions: Homo sapiens, 72 h, 72 h after drug exposure
[2] = test system: HCT8 (colorectal carcinoma); experiment: Cell growth inhibition, MTT assay, HCT8; type: cell-based; conditions: Homo sapiens, HCT-8, 72 h after drug exposure
MCF7 cells = experiment: Cell cycle analysis by flow cytometry (PI), MCF7; type: cell-based, human; conditions: 100 nM
Procedure: (§1) To assess how tubulin polymerization inhibition and the effects on the microtubule network affect the cell cycle, flow cytometry experiments were performed on HeLa, MCF7, and U87 MG cells 24, 48, and 72 h after treatments with compounds 10, 12, and 14 at 100 nM using propidium iodide (PI) for DNA staining and untreated cells as the negative control.
(§2) HeLa, MCF7, or U87 MG cells were seeded in 6-well plates (8·10^4 cells/mL, 2 mL/well) and incubated in complete DMEM Medium (see above) at 37 °C and 5% CO2 atmosphere for 24 h. Then, the cells were treated with selected compounds (10, 12, or 14) at 100 nM, and untreated cells were used as negative controls. Cells were collected 24, 48, or 72 h following treatment and fixed overnight in ethanol/PBS (7:3) at 4 °C. After two washes with PBS, cells were suspended in PBS and incubated in darkness overnight with 0.2 mg/mL RNase A (Sigma-Aldrich, St. Louis, MO, USA), 50 µg/mL propidium iodide (Sigma-Aldrich, St. Louis, MO, USA), and Triton 10x at room temperature. A BD Accuri™ C6 Plus Flow Cytometer (BD Biosciences, Franklin Lakes, NJ, USA) cytometer was used to analyze the samples, and BD Accuri™ C6 Software (version 1.0.264.21) was used for data analysis.

[3] = test system: HeLa (cervix epithelioid carcinoma); experiment: Cell growth inhibition, MTT assay, HeLa; type: cell-based; conditions: Homo sapiens
U87 MG cells = experiment: Cell cycle analysis by flow cytometry (PI), U87 MG; type: cell-based, human; conditions: 100 nM
Procedure: as §1, §2

HeLa cells = experiment: Cell cycle analysis by flow cytometry (PI), HeLa; type: cell-based, human; conditions: 100 nM
Procedure: as §1, §2

[4] = test system: HEK-293 (embryonic kidney); experiment: Cell growth inhibition, MTT assay, non-tumor HEK-293; type: cell-based; conditions: Homo sapiens, HEK293, 72 h, non-tumorigenic cell line
Summary of the method: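 Viability of non-tumor HEK-293 cells determined by MTT 72 h after compound exposure at concentrations from 10^-10 to 10^-2 M; untreated cells served as negative controls. Triplicate measurements, three independent experiments; IC50 values derived from the concentration-response data.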

Q: Which results are given for `CSc1cc(-c2nnnn2-c2ccc3c(ccn3C)c2)cc(Cl)n1` [Compound 10, 5-(5-(2-chloro-6-(methylsulfanyl)pyridin-4-yl)-1H-tetrazol-1-yl)-1-methyl-1H-indole]?
A: IC50 [1]: 25 nM; IC50 [2]: 40 nM; G0/G1 population (MCF7 cells; MCF7, 24 h): 22.5 % Cells; G2/M population (MCF7 cells; MCF7, 24 h): 65.8 % Cells; S population (MCF7 cells; MCF7, 24 h): 3.9 % Cells; SubG0/G1 population (MCF7 cells; MCF7, 24 h): 7.7 % Cells; G0/G1 population (MCF7 cells; MCF7, 48 h): 16.9 % Cells; G2/M population (MCF7 cells; MCF7, 48 h): 58.1 % Cells; S population (MCF7 cells; MCF7, 48 h): 4.6 % Cells; SubG0/G1 population (MCF7 cells; MCF7, 48 h): 20.4 % Cells; G0/G1 population (MCF7 cells; MCF7, 72 h): 13.7 % Cells; G2/M population (MCF7 cells; MCF7, 72 h): 54.8 % Cells; S population (MCF7 cells; MCF7, 72 h): 4.4 % Cells; SubG0/G1 population (MCF7 cells; MCF7, 72 h): 27 % Cells and 27.2 % Cells; IC50 ([3]; 72 h after drug exposure): 39 nM; IC50 ([3]; mean ± SD, Table S1): 39.3 ± 0.2 nM; G0/G1 population (U87 MG cells; 24 h): 21.1 % Cells; G2/M population (U87 MG cells; 24 h): 47.8 % Cells; S population (U87 MG cells; 24 h): 8.3 % Cells; SubG0/G1 population (U87 MG cells; 24 h): 23.5 % Cells; G0/G1 population (U87 MG cells; 48 h): 11.0 % Cells; G2/M population (U87 MG cells; 48 h): 31.6 % Cells; S population (U87 MG cells; 48 h): 9.0 % Cells; SubG0/G1 population (U87 MG cells; 48 h): 49.2 % Cells; G0/G1 population (U87 MG cells; 72 h): 10.5 % Cells; G2/M population (U87 MG cells; 72 h): 17.0 % Cells; S population (U87 MG cells; 72 h): 2.9 % Cells; G0/G1 population (HeLa cells; 24 h): 18.1 % Cells; G2/M population (HeLa cells; 24 h): 59.5 % Cells; S population (HeLa cells; 24 h): 3.9 % Cells; SubG0/G1 population (HeLa cells; 24 h): 18.6 % Cells; G0/G1 population (HeLa cells; 48 h): 16.7 % Cells; G2/M population (HeLa cells; 48 h): 45.9 % Cells; S population (HeLa cells; 48 h): 7.6 % Cells; SubG0/G1 population (HeLa cells; 48 h): 29.1 % Cells; G0/G1 population (HeLa cells; 72 h): 14.4 % Cells; G2/M population (HeLa cells; 72 h): 35.2 % Cells; S population (HeLa cells; 72 h): 4.9 % Cells; SubG0/G1 population (HeLa cells; 72 h): 45.6 % Cells; IC50 [4]: 4390 nM
